These results are taken from the supplement of paper PMC11061612.

The test system of this experiment is U-698-M. Particulars: B-Cell Non-Hodgkin's Lymphoma. The essentials: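 Cancer cell lines in 1536-well plates (7.5 μl DMEM/F12 or RPMI, 10% FBS) were held 24 hours at 37°C and 5% CO2 and then dosed for 72 hours at a final DMSO of typically 0.2%. Viability was taken from CellTiter-Glo 2.0 luminescence, scaled between blank-well and DMSO-well means. Curves were fitted as two-parameter logistic models with a non-linear mixed effects model, from which the single-agent IC50 was taken.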

`Cn1cnc2c(F)c(Nc3ccc(Br)cc3Cl)c(C(=O)NOCCO)cc21` [Selumetinib]: where the note is “max 10 µM”, the “IC50, cell viability 72 h” value is above 10 µM.
Regarding `Cc1nc(-c2cn3c(n2)-c2ccc(-c4cnn(C(C)(C)C(N)=O)c4)cc2OCC3)n(C(C)C)n1` [Taselisib], under “max 10 µM”, the “IC50, cell viability 72 h” value amounted to 5.68 µM.
Take `CC(=O)Nc1cccc(-n2c(=O)n(C3CC3)c(=O)c3c(Nc4ccc(I)cc4F)n(C)c(=O)c(C)c32)c1` [Trametinib]: the “IC50, cell viability 72 h” value (max 1 µM) is above 1 µM.
The same measure, in the same setting: in the case of `CC1(C)CCC(CN2CCN(c3ccc(C(=O)NS(=O)(=O)c4ccc(NCC5CCOCC5)c([N+](=O)[O-])c4)c(Oc4cnc5[nH]ccc5c4)c3)CC2)=C(c2ccc(Cl)cc2)C1` [Venetoclax] it was above 1 µM.
